# Assay results from patent US12697313B2, “Methods of treating anemia using formoterol or a pharmaceutically acceptable salt thereof” (Dana-Farber Cancer Institute, Inc., priority 2022, dated 2026).
# Where a name gives a salt, the structure may show the parent alone.
# System: phenylhydrazine (PHZ)-treated mice
# Assay: FF/Arf i.p. in PHZ-treated mice at sub-lethal dose of 60 mg/kg
# Assay type: in vivo
smiles,measurement,setting,value
"COc1ccc(C[C@@H](C)NC[C@H](O)c2ccc(O)c(NC=O)c2)cc1 [Arf, N-[2-hydroxy-5-[(1R)-1-hydroxy-2-[[(1R)-2-(4-methoxyphenyl)-1-methylethyl]amino]ethyl]phenyl]-formamide, (2R,3R)-2,3-dihydroxybutanedioate (1:1 salt)]",transferrin receptor expression in CFU-e derived from BMPs,FIG. 39B,transferrin receptor expression is enhanced
same,Hemoglobin (Hb) in peripheral blood,"after 7 and 14 days of i.p., FIG. 35",increase Hemoglobin (Hb)
same,RBC parameters (HCT % and RBCs) in peripheral blood,"after 7 days of i.p., FIG. 34",increases RBC parameters
same,LS-K and LSK cells in bone marrow progenitors,"after 14 days of i.p., FIG. 36A-36B","increase LSK, LS-K, and mitochondrial activity"
same,mitochondrial membrane potential (TMRE staining) in bone marrow progenitors,"after 14 days of i.p., FIG. 36C","increase LSK, LS-K, and mitochondrial activity"
same,megakaryocyte erythrocyte progenitors (MEP) in BM,"after 14 days of i.p., FIG. 37A",increase megakaryocyte erythrocyte progenitors (MEP)
same,body weights,"i.p., PHZ 60 mg/kg, FIG. 32",enhances body weights
same,platelets and WBCs in peripheral blood,"i.p., PHZ 60 mg/kg, FIG. 33",do not affect platelets and WBCs
